Data as given in ChEMBL document CHEMBL1201862, “PubChem BioAssay data set” (2004).
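Five compound concentrations were applied to cells in 96-well plates for 48 hours; endpoints were derived by simple linear interpolation of the resulting dose-response curve. At the GI50, growth is halved.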 Activity calls are given as the source filed them. Cut-off read from the data, not from the text of the source: active = GI50 up to about 1.1 µM and inactive = higher.

Key:
Experiment in all cases: NCI anticancer screen, dose series, 48 h
[1] = system: IGROV-1
[2] = system: T47D
[3] = system: MDA-N
[4] = system: 786-0
[5] = system: NCI-H522
[6] = system: RXF 393
[7] = system: TK-10
[8] = system: HCT-116
[9] = system: Malme-3M
[10] = system: SF-295
[11] = system: SN12C
[12] = system: OVCAR-3
[13] = system: MDA-MB-435
[14] = system: NCI-H23
[15] = system: UACC-257
[16] = system: Hs-578T

Measured: GI50

Cc1cccc(C)c1NC(=O)Nc1ccc(S(N)(=O)=O)cc1
inactive: [1] > 100 µM | [2] > 100 µM | [3] > 100 µM | [4] > 100 µM | [5] > 100 µM | [6] > 100 µM | [7] > 100 µM | [8] > 100 µM | [9] > 100 µM | [10] > 100 µM | [11] > 100 µM | [12] > 100 µM | [13] > 100 µM | [14] > 100 µM | [15] > 100 µM | [16] > 100 µM

Cc1ccc(S(=O)(=O)NC(=O)OC23COCN2COC3)cc1
inactive: [1] > 100 µM | [2] 69.5 µM | [3] > 100 µM | [4] > 100 µM | [5] > 100 µM | [6] > 100 µM | [7] > 100 µM | [8] > 100 µM | [9] > 100 µM | [10] > 100 µM | [11] > 100 µM | [12] > 100 µM | [13] > 100 µM | [14] > 100 µM | [15] > 100 µM | [16] > 100 µM

COc1ccc(C(=C2C(=O)N(c3ccccc3)C(=O)C2=C(C)C)c2ccc(OC)cc2)cc1
inactive: [1] 3.44 µM | [2] 3.27 µM | [3] 1.7 µM | [4] 3.43 µM | [5] 1.5 µM | [6] 2.09 µM | [7] 14 µM | [8] 3.72 µM | [9] 6.75 µM | [10] 3.17 µM | [11] 4.02 µM | [12] 3.56 µM | [13] 1.45 µM | [14] > 28 µM | [15] 5.05 µM | [16] 3.69 µM

COc1cccc(N2C(=O)CSC2c2cccc(Oc3ccccc3)c2)c1 (stereo not drawn)
inactive: [2] 9.04 µM | [3] 1.89 µM | [4] 6.47 µM | [5] 3.34 µM | [6] 7.03 µM | [7] 4.45 µM | [8] 3.61 µM | [9] 9.02 µM | [10] 6.32 µM | [11] 7.98 µM | [12] 4.79 µM | [13] 2.81 µM | [14] 11.5 µM | [15] 3.08 µM | [16] 5.78 µM

CC1(C)CN=C(Nc2ccc(F)cc2)S1
inactive: [1] > 100 µM | [2] > 100 µM | [3] > 100 µM | [4] > 100 µM | [5] > 100 µM | [6] > 100 µM | [7] > 100 µM | [8] > 100 µM | [9] > 100 µM | [10] > 100 µM | [11] > 100 µM | [12] > 100 µM | [13] > 100 µM | [14] > 100 µM | [15] > 100 µM | [16] > 100 µM

Cc1cc(=O)n2nc(CCl)sc2n1
inactive: [1] 14.9 µM | [2] 15.3 µM | [3] 14 µM | [4] 15.7 µM | [5] 5.57 µM | [6] 5.94 µM | [7] 10.2 µM | [8] 12.4 µM | [9] 12.8 µM | [10] 19.3 µM | [11] 14.3 µM | [12] 14.9 µM | [13] 12.7 µM | [14] 23.2 µM | [15] 10.2 µM | [16] 17 µM

O=C(O)C(F)(F)C(F)(F)C(F)(F)C(F)(F)C(F)(F)C(F)(F)C(F)(F)C(F)(F)F
inactive: [1] > 100 µM | [2] 57.3 µM | [3] 40.4 µM | [4] 83.9 µM | [5] 62.5 µM | [6] > 100 µM | [7] > 100 µM | [8] 41 µM | [9] > 100 µM | [10] 31 µM | [11] 50.5 µM | [12] 43.8 µM | [13] 48.3 µM | [14] 61.4 µM | [15] > 100 µM | [16] 29.9 µM

Cc1cc(=O)nc(S(=O)(=O)NC(=S)Nc2ccc(Cl)cc2)[nH]1
inactive: [1] > 100 µM | [2] 44.9 µM | [3] > 100 µM | [4] > 100 µM | [5] 27.1 µM | [6] 2.74 µM | [7] > 100 µM | [8] > 100 µM | [9] > 100 µM | [10] > 100 µM | [11] > 100 µM | [12] > 100 µM | [13] > 100 µM | [14] > 100 µM | [15] > 100 µM | [16] > 100 µM

O=C(O)c1ccc(C(=O)O)c2c(C(=O)O)ccc(C(=O)O)c12
inactive: [1] > 100 µM | [2] > 100 µM | [3] > 100 µM | [4] > 100 µM | [5] > 100 µM | [6] > 100 µM | [7] > 100 µM | [8] > 100 µM | [9] > 100 µM | [10] > 100 µM | [11] > 100 µM | [12] > 100 µM | [13] > 100 µM | [14] > 100 µM | [15] > 100 µM | [16] > 100 µM
